The source of these data is patent publication US20100136537A1, “PHOTORECEPTOR PRECURSOR CELLS” (THE REGENTS OF THE UNIVERSITY OF MICHIGAN, priority 2006, published 2010).

Entries after “also recorded” stand apart in the source; their conditions may differ.

Series [1] concerns photoreceptors. Put plainly: MNU-induced photoreceptor degeneration in adult C57Bl/6 mice (TUNEL, immunostaining, ERG). Type of series: in vivo, mouse. Here is the method: Preparation of Donor Cells and Recipients. Donor cells were prepared from P0-P2 retinas of the neural retina leucine zipper (Nrl)-GFP transgenic mice (See Example 1). Nrl is a basic motif-leucine zipper transcription factor that is preferentially expressed in rod photoreceptors and required for rod differentiation (See, e.g., Swaroop et al., Proc Natl Acad Sci USA. 1992; 89:266-270; and Mears et al., Nat Genet. 2001; 29:447-452). The Nrl promoter directed expression of enhanced green fluorescent protein (EGFP) specifically to new-born rod precursors and mature rods in the Nrl-GFP transgenic mouse. Eyes were enucleated, and the neural retinas dissected and dissociated with a Papain-Protease-DNase solution. N-methyl-N-nitrosourea (MNU; Sigma, St. Louis, Mo.), an alkylating agent that induces photoreceptor degeneration by forming 7-methyldeoxyguanosine DNA adducts in the nuclei of photoreceptors, was administered at a dose of 60 mg/kg to adult C57B1/6 mice by intraperitoneal injection 7 days before transplantation (See, e.g., Doonan et al., J Neurosci. 2003; 23:5723-5731; Ogino et al., Toxicol Pathol. 1993; 21:21-25; Yuge et al., In Vivo. 1996; 10:483-488).
Tissue Processing. Two or four weeks after surgery, the animals were perfused transcardially with 4% paraformaldehyde (Merck, Darmstadt, Germany) in 0.1 M phosphate buffer after sedation with ketamine (15 mg/kg). Eyes were removed and immersion fixed with 4% paraformaldehyde at 4° C. overnight and then in 25% sucrose-PBS to cryoprotect. The specimens were embedded in an optimal cutting temperature compound (Miles, Elkhart, Ind.) and consecutive 12-μm frozen sections were sliced on a cryostat.
Immunofluorescence. […]
Electrophysiology. […] Animals were placed on a regulated heating pad under dim red illumination and electroretinograms (ERGs) were recorded with a gold loop electrode placed on the corneal surface maintained with 3% methylcellulose gel. […] The amplitude of the a-wave was measured from the prestimulus baseline to the a-wave trough. […]

The test system of series [2] is photoreceptors. Particulars: MNU 60 mg/kg i.p.; cited from earlier work.
Series [3] relates to mouse Nrl promoter. The series can be described thus: Nrl promoter-luciferase assay in HEK293 cells. Conditions: dose-dependent response. In kind it is cell-based. From the text:
(§1) Plasmid Constructs. DNA fragments of 2.5 kb (Nl), 1.2 kb (Nm), and 200 by (Ns) from the 5′-flanking region of the mouse Nrl promoter (GENBANK: AY526079; (See Akimoto et al., (2006) Proc. Natl. Acad. Sci. U.S.A. 103, 3890-3895) were amplified and cloned into pGL3-basic vector (Promega, Madison, Wis.) in-frame with the luciferase reporter gene. The following site-directed mutants of the Nrl promoter were generated from pGL3-Nl using the QUICKCHANGE site-directed mutagenesis kit (Stratagene, La Jolla, Calif.) and sequence-verified: pGL3-Nl-mutIII-1, pGL3-Nl-mutIII-2, and pGL3-Nl-mutII-1, containing deletion of the putative RAREs at positions −781 to −767, −709 to −700, and −453 to −443, respectively.
Transient transfection of HEK293 (ATCC CRL-1573) cells was performed using LIPOFECTAMINE (Invitrogen) according to the manufacturer's instructions. The wild type and mutant Nrl promoter-luciferase constructs, and pCMV-β-gal were added to the cells at a concentration of 0.1 μg and 0.05 μg, respectively. After 3 h, 100 μl of Dulbecco's modified Eagle's medium with 0 or 500 nM at RA was added to each well. Cells were harvested after 24 h in 100 μl of GLO lysis buffer (Promega), and luciferase activity was measured.

Series [4] concerns NRL. Put plainly: NRL expression in adult pig photoreceptor cultures (immunoblot, immunocytochemistry). Particulars: 24 h.
The subject of series [5] is NRL. Put plainly: NRL expression in serum-starved Y79 cells (immunoblot, Northern blot). Type of series: cell-based, human. Particulars: serum-starved Y79 cells, 10 μM RA. Here is the method:
Cell Culture. Y79 human retinoblastoma cells (ATCC HTB 18) and HEK293 (ATCC CRL-1573) were maintained in RPMI 1640 and Dulbecco's modified Eagle's medium, respectively, under standard conditions with 15% (v/v) fetal bovine serum (FBS), penicillin G (100 units/ml), and streptomycin (100 μg/ml) at 37° C. and 5% CO2. For serum starvation and RA treatment experiments, Y79 cells (5×10^4) were cultured in the presence or absence of the serum (same batch of serum was used in all the experiments), at RA, 9-cis-RA, cycloheximide (CHX), and 4-(E-2-(5,6,7,8-tetrahydro-5,5,8,8-tetramethyl-2-naphthalenl)-1-propenyl) benzoic acid (TTNPB) at indicated concentrations. Me2SO or ethanol was added to Y79 cells in lieu of the soluble factors as negative control.
For protein synthesis inhibition experiments, Y79 cells were serum-starved for 24 h, and then simultaneously treated with RA and CHX for 8 or 24 h. NRL expression was analyzed by immunoblotting. In another set of experiments, serum-starved Y79 cells were first incubated with RA alone for 8 or 24 h and then CHX was added. Cell extracts were then analyzed 24 h later for examining NRL expression by immunoblotting.
(§2) Protein Expression Analysis.
(Immunoblotting shows a protein as a band on a membrane.)

Series [6] concerns NRL. The series can be described thus: NRL expression in newborn rat retinal cell cultures (immunoblot). Type of series: cell-based. Here is the method: Primary cultures of new-born rat retinal cells and enriched adult porcine photoreceptors were prepared as described (See Traverso et al., (2003) Investig. Ophthalmol. Vis. Sci. 44, 4550-4558). For newborn rat retinal cultures, rat pups were anesthetized and decapitated, the retinas dissected into CO2-independent Dulbecco's modified Eagle's medium and chopped into small fragments. The fragments were washed twice in Ca/Mg-free PBS and then digested in PBS containing 0.1% papain for 25 min at 37° C. Tissue was dissociated by repeated passage through flame polished Pasteur pipettes, then seeded into tissue culture plates precoated with laminin, in Neurobasal A medium (Invitrogen) containing 2% FBS. After 48 h, medium was changed to a chemically defined formula (Neurobasal A supplemented with B27) for a further 48 h, and then treated.
Experimental Treatments and Immunochemistry. […] RA was added to test wells (1, 5, 10, 20, and 40 μM, stock solution prepared in Me2SO, 10 μl/well).
as §2

Series [7] concerns mouse Nrl promoter. The series can be described thus: Nrl promoter-luciferase assay in serum-deprived Y79 cells. In kind it is cell-based, human. Particulars: pGL3-NI and pGL3-Nm constructs (with putative RAREs), 10 μM RA, 24 h.
Text: as §1
Transient Transfection and Luciferase Assay. Transient transfection of Y79 cells was performed using FUGENE 6 reagent (Roche Diagnostics, Indianapolis, Ind.). Prior to transfection, cells were serum-starved 24 h in OPTI-MEM (Invitrogen), diluted to 1.5×10^5 cells in 250 μl and seeded into 24-well plates. Transfection was performed with 0.5 μg of promoter-luciferase construct and 1.5 μl of FUGENE 6. […] Luciferase activity was measured using the Luciferase Assay System (Promega, Madison, Wis.). Experiments were repeated at least three times, and the luciferase activity was calculated as a fold change from the base line luciferase activity obtained in the presence of vector only.

The subject of series [8] is CEP290. Conditions: previous studies; cited from earlier work.
The test system of series [9] is chondroitin sulfate proteoglycans (CSPG). The series can be described thus: CS-56 staining of glial scar after subretinal injection with or without ChABC. In kind it is in vivo, mouse. Conditions: ChABC 0.025 U/μl, 1 μl subretinal, MNU-treated mice. Here is the method:
Transplantation Procedure. One μl of dissociated Nrl-GFP+ photoreceptor cell suspension (1.0×10^5 cells/μl each) without or with chondroitinase ABC (ChABC) (0.025 U/μl, Wako, Tokyo, Japan) (Nrl group, Nrl/ChABC group, respectively) or 1 μl of PBS (sham group) was drawn into a tapered glass pipette connected to a modified tube and injected through the sclera into the subretinal space. The procedure was performed under surgical microscope.
Immunofluorescence. Sections were washed in PBS, preincubated with a blocking solution (containing 20% skim milk and 0.3% Triton X-100 in PBS) for 30 minutes, and then incubated overnight at 4° C. with primary antibodies diluted in a blocking solution (containing 5% skim milk and 0.3% Triton X-100 in PBS). The primary antibodies and working dilutions were as follows: mouse and rabbit anti-GFP (1:500, Molecular Probes, Eugene, Oreg.), mouse monoclonal CS-56 IgM antibody (1:200, Sigma) that reacts specifically with chondroitin sulfate containing proteoglycans, and anti-vesicular glutamate transporter 1 (VGluT1; 1:100, Chemicon, Hampshire, UK), a marker for active presynaptic formation (See, e.g., Fujiyama et al., J Comp Neurol. 2003; 465:234-249). Sections were incubated for 90 minutes with secondary antibodies diluted 1:500 in PBS containing 5% skim milk and 0.3% Triton X-100. […]

In the case of `CN(N=O)C(N)=O` [MNU, N-methyl-N-nitrosourea], in series [1] (1 week after single i.p. MNU 60 mg/kg), the “dark-adapted ERG response” value is given as “does not detect a response; also recorded: no responses were detectable”. The “state of outer nuclear layer / photoreceptor layer” value in series [1] (1 week after single i.p. MNU 60 mg/kg, VGluT1 and Cytox blue staining) is “completely destroyed; also recorded: essentially destroyed”. Besides, in series [1] (2 days after single i.p. MNU 60 mg/kg), the “TUNEL labeling of retina” value is recorded as “nuclear labeling in the majority of the photoreceptor cells”. In series [2], the “time to apoptosis in all photoreceptors after injection” value is listed as at most 1 week.

As to `CC1=C(/C=C/C(C)=C/C=C/C(C)=C/C(=O)O)C(C)(C)CCC1` [at RA], the “at RA concentration of maximum effect on pGL3-Nl luciferase activity” value in series [3] stood at 500 nM. The “RA concentration giving maximal effects on NRL expression” value in [4] is 5 to 20 µM; in series [6] (newborn rat retinal cultures, 24 h) it was 5 to 20 µM. The “incubation time after which an increase in NRL protein was observed” value in [5] stood at 8 h. The toxicity in culture entry in [6] (doses above 5-20 μM (40 μM RA), newborn rat retina cells) is “some toxicity; also recorded: toxic for cell survival”. In addition, the “increase in luciferase activity” value in series [7] is over 2 fold.

Regarding `COC(=O)Nc1nc2ccc(C(=O)c3cccs3)cc2[nH]1` [nocodazole], in [8], the “centrosomal localization of CEP290 after microtubule depolymerization” value is given as “does not alter centrosomal localization of CEP290”.

With chondroitinase ABC [ChABC], in series [9], the “degradation of CSPG in the ECM of the glial scar at the injection site (CS-56 staining)” value was “substantially, if not completely, degraded”.
